Reference: patent US8778966B2, “Quinolinone derivatives as PARP and tank inhibitors” (Janssen Pharmaceutica, NV, priority 2007, dated 2014)
Read-outs that look alike come from different tables or passages of the source.

Columns and labels:
PC-3 cells = assay: Antiproliferative activity, Alamar Blue assay, PC-3 cells; assay type: cell-based, human; settings: for IC50: Homo sapiens, PC-3, PC3 cells, read-out: PC3 antiproliferative activity pIC50 (converted); for PC3 antiproliferative activity pIC50: PC3 cells
Method in brief: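 PC-3 cells seeded at 4.5×10^3 cells/ml, left to adhere 24 hr, then exposed to compound for 4 days. Resazurin (Alamar Blue) added for a further 24 hrs at 37° C; fluorescence read at 540/590 nm. Viability as % of untreated control, mean of 3 wells; IC50 by probit analysis, reported as pIC50.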

HCT116 cells = assay: Antiproliferative activity, Alamar Blue assay, HCT116 cells; assay type: cell-based, human; set-up: key to HCT116 antiproliferative activity pIC50: pIC50 = -log IC50 (IC50: conc. reducing growth to 50% of control); settings: for IC50: Homo sapiens, HCT-116, HCT116 cells, read-out: HCT116 antiproliferative activity pIC50 (converted); for HCT116 antiproliferative activity pIC50: HCT116 cells
Method in brief: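 HCT116 cells seeded, adhered 24 h, then exposed to compound for 4 days; Alamar Blue (resazurin) added for 4 h at 37 °C, fluorescence read at 540/590 nm. Viability as % of untreated control, triplicate wells; IC50 by probit analysis, reported as pIC50.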

| IC50 (PC-3 cells) | IC50 (HCT116 cells) | Compound | further results |
| --- | --- | --- | --- |
| > 10 µM | > 10 µM | CCc1cc2ccc([C@](C)(C#N)Cc3ccccc3)cc2[nH]c1=O (single isomer, unassigned) [Compound 45] | – |
| 0.398 µM | 0.158 µM | CCc1cc2ccc([C@@](C)(C#N)Cc3ccccc3)cc2[nH]c1=O (single isomer, unassigned) [Compound 46] | – |
| – | – | CCc1cc2ccc(C(C)(C#N)CC3COc4ccccc4O3)cc2[nH]c1=O (single isomer, unassigned) [Compound 47] | PC3 antiproliferative activity pIC50 (PC-3 cells): <5; HCT116 antiproliferative activity pIC50 (HCT116 cells): <5 |
| – | – | CCc1cc2ccc([C@](C)(C#N)Cc3nc(OC)cc(OC)n3)cc2[nH]c1=O (single isomer, unassigned) [Compound 52] | IC50 (PC-3 cells; Alamar Blue): 7.94 µM; IC50 (HCT116 cells; Alamar Blue): 5.01 µM |
| – | – | CCc1cc2ccc([C@@](C)(C#N)Cc3nc(OC)cc(OC)n3)cc2[nH]c1=O (single isomer, unassigned) [Compound 53] | IC50 (PC-3 cells; Alamar Blue): 0.0398 µM; IC50 (HCT116 cells; Alamar Blue): 0.0398 µM |
| – | – | CCc1cc2ccc(C(C)(C#N)Cc3cccc(C#C[Si](C)(C)C)c3)cc2[nH]c1=O (stereo not drawn) [Compound 1] | IC50 (PC-3 cells; Alamar Blue): 0.631 µM; IC50 (HCT116 cells; Alamar Blue): 0.2 µM |
| 7.94 µM | 2.51 µM | CCc1cc2ccc(C(C)(C#N)Cc3cccc(CN(C)C)c3)cc2[nH]c1=O (stereo not drawn) [Compound 7] | – |
| 0.631 µM | 0.631 µM | CCc1cc2ccc(C(C)(C#N)Cc3cccc(COC)c3)cc2[nH]c1=O (stereo not drawn) [Compound 8] | – |
| 0.631 µM | 0.251 µM | CCc1cc2ccc(C(C)(C#N)Cc3cccc(CO)c3)cc2[nH]c1=O (stereo not drawn) [Compound 9] | – |
| > 10 µM | > 10 µM | CCc1cc2ccc(C(C#N)(Cc3ccccc3)CC3CC3)cc2[nH]c1=O (stereo not drawn) [Compound 28] | – |
| > 10 µM | 7.94 µM | CC(C#N)(Cc1ccccc1)c1ccc2cc(CO)c(=O)[nH]c2c1 (stereo not drawn) [Compound 40] | – |
| 0.631 µM | 0.631 µM | CCc1cc2ccc(C(C)(C#N)Cc3c(F)ccc(C)c3F)cc2[nH]c1=O (stereo not drawn) [Compound 41] | – |
| 0.316 µM | 0.158 µM | CCc1cc2ccc(C(C)(C#N)Cc3nnsc3Cl)cc2[nH]c1=O (stereo not drawn) [Compound 42] | – |
| 0.158 µM | 0.158 µM | CCc1cc2ccc(C(C)(C#N)Cc3nc(OC)cc(OC)n3)cc2[nH]c1=O (stereo not drawn) [Compound 43] | – |
| 0.158 µM | 0.2 µM | CCc1cc2ccc(C(C)(C#N)Cc3cccc(Br)c3)cc2[nH]c1=O (stereo not drawn) [Compound 49] | – |
| 0.2 µM | 0.126 µM | CCc1cc2ccc(C(C)(C#N)Cc3cccc(C#N)c3)cc2[nH]c1=O (stereo not drawn) [Compound 51] | – |
| 0.794 µM | 0.501 µM | CCc1cc2ccc(C(C)(C#N)CCOc3ccc([N+](=O)[O-])cc3)cc2[nH]c1=O (stereo not drawn) [Compound 54] | – |
| > 10 µM | > 10 µM | CCc1cc2ccc(C(C)(C#N)Cc3cccc(CN4CCN(C)CC4)c3)cc2[nH]c1=O (stereo not drawn) [Compound 57] | – |
| 2 µM | 0.501 µM | CCc1cc2ccc(C(C)(C#N)Cc3cccc(CN4CCOCC4)c3)cc2[nH]c1=O (stereo not drawn) [Compound 58] | – |
| 10 µM | 3.16 µM | CCc1cc2ccc(C(C)(C#N)Cc3cccc(CNC)c3)cc2[nH]c1=O (stereo not drawn) [Compound 59] | – |
| 7.94 µM | 6.31 µM | CCc1cc2ccc(C(C)(C#N)Cc3cccc(CNCCOC)c3)cc2[nH]c1=O (stereo not drawn) [Compound 60] | – |

| IC50 (PC-3 cells) | IC50 (HCT116 cells) | Compound | further results |
| --- | --- | --- | --- |
| > 10 µM | > 10 µM | CCc1cc2ccc(C(C)(C#N)Cc3cccc(CNCCN4CCOCC4)c3)cc2[nH]c1=O (stereo not drawn) [Compound 61] | – |
| 7.94 µM | 7.94 µM | CCc1cc2ccc(C(C)(C#N)Cc3cccc(C(=O)NCCOC)c3)cc2[nH]c1=O (stereo not drawn) [Compound 62] | – |
| 3.16 µM | 1.58 µM | CCc1cc2ccc(C(C)(C#N)Cc3cccc(C(=O)N(C)C)c3)cc2[nH]c1=O (stereo not drawn) [Compound 63] | – |
| > 10 µM | > 10 µM | CCc1cc2ccc(C(C)(C#N)Cc3cccc(N4CCNCC4)c3)cc2[nH]c1=O (stereo not drawn) [Compound 64] | – |
| 5.01 µM | 5.01 µM | CCc1cc2ccc(C(C)(C#N)Cc3cccc(N4CCN(C)CC4)c3)cc2[nH]c1=O (stereo not drawn) [Compound 66] | – |
| 1.26 µM | 1.58 µM | CCc1cc2ccc(C(C)(C#N)Cc3cccc(OCC4CC4)c3)cc2[nH]c1=O (stereo not drawn) [Compound 67] | – |
| 7.94 µM | 6.31 µM | CCc1cc2ccc(C(C)(C#N)Cc3cccc(OCCCN4CCOCC4)c3)cc2[nH]c1=O (stereo not drawn) [Compound 68] | – |
| 7.94 µM | 7.94 µM | CCc1cc2ccc(C(C)(C#N)Cc3cccc(OCCCN4CCN(C)CC4)c3)cc2[nH]c1=O (stereo not drawn) [Compound 69] | – |
| 2.51 µM | 0.631 µM | Cc1cc2ccc(C(C)(C#N)Cc3noc(-c4cccc(C(F)(F)F)c4)n3)cc2[nH]c1=O (stereo not drawn) [Compound 70] | – |
| 2 µM | 5.01 µM | Cc1cc2ccc(C(C)(C#N)Cc3cc4ccccc4s3)cc2[nH]c1=O (stereo not drawn) [Compound 71] | – |
| 2 µM | 0.794 µM | Cc1cc2ccc(C(C)(C#N)Cc3ccc(Cl)s3)cc2[nH]c1=O (stereo not drawn) [Compound 72] | – |
| 2 µM | 0.794 µM | Cc1cc2ccc(C(C)(C#N)Cc3ccc(C(F)(F)F)o3)cc2[nH]c1=O (stereo not drawn) [Compound 73] | – |
| 1 µM | 0.501 µM | Cc1cc2ccc(C(C)(C#N)Cc3cccc4cccnc34)cc2[nH]c1=O (stereo not drawn) [Compound 74] | – |
| 0.2 µM | 0.126 µM | Cc1cc2ccc(C(C)(C#N)Cc3nc4ccccc4s3)cc2[nH]c1=O (stereo not drawn) [Compound 75] | – |
| 0.631 µM | 0.251 µM | Cc1cc2ccc(C(C)(C#N)Cc3ccccc3)cc2[nH]c1=O (stereo not drawn) [Compound 76] | – |
| 1.58 µM | 1 µM | CCc1cc2ccc(C(C)(C#N)Cc3ccc(OC)c(C#N)c3)cc2[nH]c1=O (stereo not drawn) [Compound 77] | – |
| 0.398 µM | 0.398 µM | CCc1cc2ccc(C(C)(C#N)Cc3cc(C)ccc3C)cc2[nH]c1=O (stereo not drawn) [Compound 78] | – |
| 0.794 µM | 0.794 µM | CCc1cc2ccc(C(C)(C#N)Cc3ccc(F)c(C)c3)cc2[nH]c1=O (stereo not drawn) [Compound 79] | – |
| 0.398 µM | 0.501 µM | CCc1cc2ccc(C(C)(C#N)Cc3cc(Cl)ccc3OC)cc2[nH]c1=O (stereo not drawn) [Compound 80] | – |
| 0.501 µM | 0.316 µM | CCc1cc2ccc(C(C)(C#N)Cc3cccc(Br)c3C)cc2[nH]c1=O (stereo not drawn) [Compound 81] | – |
| 0.631 µM | 0.316 µM | CCc1cc2ccc(C(C)(C#N)Cc3ccc(Cl)c(C(F)(F)F)c3)cc2[nH]c1=O (stereo not drawn) [Compound 82] | – |

| IC50 (PC-3 cells) | IC50 (HCT116 cells) | Compound | further results |
| --- | --- | --- | --- |
| 2 µM | 1 µM | CCc1cc2ccc(C(C)(C#N)Cc3ccc(C)c(F)c3F)cc2[nH]c1=O (stereo not drawn) [Compound 83] | – |
| 3.98 µM | 2 µM | CCc1cc2ccc(C(C)(C#N)Cc3c(C)cccc3C)cc2[nH]c1=O (stereo not drawn) [Compound 84] | – |
| 1 µM | 0.316 µM | CCc1cc2ccc(C(C)(C#N)Cc3nc4ccccc4o3)cc2[nH]c1=O (stereo not drawn) [Compound 85] | – |
| 6.31 µM | 5.01 µM | CCc1cc2ccc(C(C)(C#N)Cc3csc(C)n3)cc2[nH]c1=O (stereo not drawn) [Compound 86] | – |
| 1 µM | 1 µM | CCc1cc2ccc(C(C)(C#N)Cc3ccc4nccnc4c3)cc2[nH]c1=O (stereo not drawn) [Compound 87] | – |
| 10 µM | > 10 µM | CCc1cc2ccc(C(C)(C#N)Cc3c(C)c(C)cc(C)c3C)cc2[nH]c1=O (stereo not drawn) [Compound 88] | – |
| > 10 µM | > 10 µM | CCc1cc2ccc(C(C)(C#N)Cc3c(C)c(C)c(C)c(C)c3C)cc2[nH]c1=O (stereo not drawn) [Compound 89] | – |
| – | 1 µM | CCc1cc2ccc(C(C)(C#N)Cc3cc(Cl)cc4c3OCOC4)cc2[nH]c1=O (stereo not drawn) [Compound 90] | PC3 antiproliferative activity pIC50 (PC-3 cells): 5.8 |
| – | – | CCc1cc2ccc(C(C)(C#N)Cc3cc(Cl)cc4c3OCOC4)cc2[nH]c1=O (stereo not drawn) [Compound 92] | PC3 antiproliferative activity pIC50 (PC-3 cells): 5.4; HCT116 antiproliferative activity pIC50 (HCT116 cells): 5.8 |
| 10 µM | > 10 µM | CCc1cc2ccc(C(C)(C#N)Cc3nncn3C)cc2[nH]c1=O (stereo not drawn) [Compound 93] | – |
| > 10 µM | 6.31 µM | CCc1cc2ccc(C(C)(C#N)Cc3cccc4nnn(C)c34)cc2[nH]c1=O (stereo not drawn) [Compound 94] | – |
| 0.631 µM | 0.251 µM | CCc1cc2ccc(C(C)(C#N)Cc3nn(C)c4ccccc34)cc2[nH]c1=O (stereo not drawn) [Compound 95] | – |
| > 10 µM | 5.01 µM | CCc1cc2ccc(C(C)(C#N)Cc3cn4ccccc4n3)cc2[nH]c1=O (stereo not drawn) [Compound 96] | – |
| > 10 µM | 2.51 µM | CCc1cc2ccc(C(C)(C#N)Cc3cccnc3)cc2[nH]c1=O (stereo not drawn) [Compound 97] | – |
| > 10 µM | > 10 µM | CCc1cc2ccc(C(C)(C#N)Cc3ccncc3)cc2[nH]c1=O (stereo not drawn) [Compound 98] | – |
| 0.398 µM | 0.0794 µM | CCc1cc2ccc(C(C)(C#N)Cc3cc(Cl)ccc3Cl)cc2[nH]c1=O (stereo not drawn) [Compound 99] | – |
| 3.16 µM | 2.51 µM | CCc1cc2ccc(C(C)(C#N)Cc3ccccc3C#N)cc2[nH]c1=O (stereo not drawn) [Compound 101] | – |
| 1 µM | 2 µM | CCc1cc2ccc(C(C)(C#N)Cc3ccccc3OC(F)(F)F)cc2[nH]c1=O (stereo not drawn) [Compound 102] | – |
| 0.631 µM | 1 µM | CCc1cc2ccc(C(C)(C#N)Cc3ccccc3C(F)(F)F)cc2[nH]c1=O (stereo not drawn) [Compound 103] | – |

| Compound | IC50 (PC-3 cells) | IC50 (HCT116 cells) | further results |
| --- | --- | --- | --- |
| CCOP(=O)(OCC)c1cccc(CC(C)(C#N)c2ccc3cc(CC)c(=O)[nH]c3c2)c1 (stereo not drawn) [Compound 50] | 0.794 µM | 1.26 µM | – |
| CCc1cc2ccc(C(C)(C#N)Cc3cc4c(cc3Cl)OCO4)cc2[nH]c1=O (stereo not drawn) [Compound 91] | 0.398 µM | 0.501 µM | – |
